Laboratory results as given in PMC11730311 (Scientific Reports, 2025).
Starred links: 1 amine or outer side, 2 acyl side, 3 side chain; linkers in the order of their positions; H or OH if unused. Residues, ends and D or L forms follow the SMILES beside them. Groups on a side chain read outwards from the residue. No end group written: not given here. *: point of attachment. C20 diacid = O=C(O)CCCCCCCCCCCCCCCCCCC(=O)*; γGlu = O=C(O)[C@H](CCC(=O)[*:2])N[*:1]

Experiments:
[1] = Pharmacokinetic pilot study, plasma exposure after IV dosing; assay type: in vivo, mouse; details: for half-life: male, NMRI, mouse, plasma, iv, 700 nmol/kg
[2] = target: human calcitonin gene-related peptide receptor (hCGRP-R) (Homo sapiens, UniProt O60894+Q16602); test: cell-based
Sequence of human calcitonin gene-related peptide receptor (hCGRP-R) (Q16602 23-461): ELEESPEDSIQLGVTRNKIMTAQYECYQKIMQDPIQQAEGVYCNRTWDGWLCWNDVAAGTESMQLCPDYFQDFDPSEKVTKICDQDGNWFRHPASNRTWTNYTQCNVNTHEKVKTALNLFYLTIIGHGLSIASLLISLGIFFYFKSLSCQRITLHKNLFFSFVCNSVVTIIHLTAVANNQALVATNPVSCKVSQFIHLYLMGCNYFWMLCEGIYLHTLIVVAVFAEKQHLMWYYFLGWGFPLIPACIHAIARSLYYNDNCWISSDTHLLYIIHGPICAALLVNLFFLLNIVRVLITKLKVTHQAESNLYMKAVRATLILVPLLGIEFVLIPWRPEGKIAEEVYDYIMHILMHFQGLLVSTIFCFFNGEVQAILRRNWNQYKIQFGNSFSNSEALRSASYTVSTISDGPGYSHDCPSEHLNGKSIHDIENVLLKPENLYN
Sequence of human calcitonin gene-related peptide receptor (hCGRP-R) (O60894 27-148): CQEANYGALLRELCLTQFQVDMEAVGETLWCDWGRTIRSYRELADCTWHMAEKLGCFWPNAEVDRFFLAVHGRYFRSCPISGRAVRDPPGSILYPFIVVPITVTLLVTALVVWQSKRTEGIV

Compound | half-life [1] [h] | difference in half-life versus hαCGRP8-37N25K-C20DA-γGlu ([1]; male NMRI mice, IV) | Kb [2] [nM]
CC(C)C[C@H](NC(=O)[C@H](CCCNC(=N)N)NC(=O)[C@H](Cc1c[nH]cn1)NC(=O)[C@@H](NC(=O)[C@@H](N)C(C)C)[C@@H](C)O)C(=O)N[C@@H](C)C(=O)N[C@@H](CCCCNC(=O)CC[C@H](NC(=O)CCCCCCCCCCCCCCCCCCC(=O)O)C(=O)O)C(=O)N[C@@H](CC(C)C)C(=O)N[C@@H](CC(C)C)C(=O)N[C@@H](CO)C(=O)N[C@@H](CCCNC(=N)N)C(=O)N[C@@H](CO)C(=O)NCC(=O)NCC(=O)N[C@H](C(=O)N[C@H](C(=O)N[C@@H](CCCCN)C(=O)N[C@@H](CC(N)=O)C(=O)N[C@@H](CC(N)=O)C(=O)N[C@@H](Cc1ccccc1)C(=O)N[C@H](C(=O)N1CCC[C@H]1C(=O)N[C@H](C(=O)N[C@@H](CC(N)=O)C(=O)N[C@H](C(=O)NCC(=O)N[C@@H](CO)C(=O)N[C@@H](CCCCN)C(=O)N[C@@H](C)C(=O)N[C@@H](Cc1ccccc1)C(N)=O)C(C)C)[C@@H](C)O)C(C)C)C(C)C)C(C)C [G14K-C20DA-γGlu] (H-VTHRLAK([γGlu-C20 diacid])LLSRSGGVVKNNFVPTNVGSKAF-NH2) | 10.1 | – | –
CC(C)C[C@H](NC(=O)CNC(=O)[C@H](C)NC(=O)[C@H](CC(C)C)NC(=O)[C@H](CCCNC(=N)N)NC(=O)[C@H](Cc1c[nH]cn1)NC(=O)[C@@H](NC(=O)[C@@H](N)C(C)C)[C@@H](C)O)C(=O)N[C@@H](CC(C)C)C(=O)N[C@@H](CO)C(=O)N[C@@H](CCCNC(=N)N)C(=O)N[C@@H](CO)C(=O)N[C@@H](CCCCNC(=O)CC[C@H](NC(=O)CCCCCCCCCCCCCCCCCCC(=O)O)C(=O)O)C(=O)NCC(=O)N[C@H](C(=O)N[C@H](C(=O)N[C@@H](CCCCN)C(=O)N[C@@H](CC(N)=O)C(=O)N[C@@H](CC(N)=O)C(=O)N[C@@H](Cc1ccccc1)C(=O)N[C@H](C(=O)N1CCC[C@H]1C(=O)N[C@H](C(=O)N[C@@H](CC(N)=O)C(=O)N[C@H](C(=O)NCC(=O)N[C@@H](CO)C(=O)N[C@@H](CCCCN)C(=O)N[C@@H](C)C(=O)N[C@@H](Cc1ccccc1)C(N)=O)C(C)C)[C@@H](C)O)C(C)C)C(C)C)C(C)C [G20K-C20DA-γGlu] (H-VTHRLAGLLSRSK([γGlu-C20 diacid])GVVKNNFVPTNVGSKAF-NH2) | 7.5 | – | –
CC(C)C[C@H](NC(=O)CNC(=O)[C@H](C)NC(=O)[C@H](CC(C)C)NC(=O)[C@H](CCCNC(=N)N)NC(=O)[C@H](Cc1c[nH]cn1)NC(=O)[C@@H](NC(=O)[C@@H](N)C(C)C)[C@@H](C)O)C(=O)N[C@@H](CC(C)C)C(=O)N[C@@H](CCCCNC(=O)CC[C@H](NC(=O)CCCCCCCCCCCCCCCCCCC(=O)O)C(=O)O)C(=O)N[C@@H](CCCNC(=N)N)C(=O)N[C@@H](CO)C(=O)NCC(=O)NCC(=O)N[C@H](C(=O)N[C@H](C(=O)N[C@@H](CCCCN)C(=O)N[C@@H](CC(N)=O)C(=O)N[C@@H](CC(N)=O)C(=O)N[C@@H](Cc1ccccc1)C(=O)N[C@H](C(=O)N1CCC[C@H]1C(=O)N[C@H](C(=O)N[C@@H](CC(N)=O)C(=O)N[C@H](C(=O)NCC(=O)N[C@@H](CO)C(=O)N[C@@H](CCCCN)C(=O)N[C@@H](C)C(=O)N[C@@H](Cc1ccccc1)C(N)=O)C(C)C)[C@@H](C)O)C(C)C)C(C)C)C(C)C [S17K-C20DA-γGlu] (H-VTHRLAGLLK([γGlu-C20 diacid])RSGGVVKNNFVPTNVGSKAF-NH2) | 12.3 | – | –
CC(C)C[C@H](NC(=O)CNC(=O)[C@H](C)NC(=O)[C@H](CC(C)C)NC(=O)[C@H](CCCNC(=N)N)NC(=O)[C@H](Cc1c[nH]cn1)NC(=O)[C@@H](NC(=O)[C@@H](N)C(C)C)[C@@H](C)O)C(=O)N[C@@H](CC(C)C)C(=O)N[C@@H](CO)C(=O)N[C@@H](CCCNC(=N)N)C(=O)N[C@@H](CCCCNC(=O)CC[C@H](NC(=O)CCCCCCCCCCCCCCCCCCC(=O)O)C(=O)O)C(=O)NCC(=O)NCC(=O)N[C@H](C(=O)N[C@H](C(=O)N[C@@H](CCCCN)C(=O)N[C@@H](CC(N)=O)C(=O)N[C@@H](CC(N)=O)C(=O)N[C@@H](Cc1ccccc1)C(=O)N[C@H](C(=O)N1CCC[C@H]1C(=O)N[C@H](C(=O)N[C@@H](CC(N)=O)C(=O)N[C@H](C(=O)NCC(=O)N[C@@H](CO)C(=O)N[C@@H](CCCCN)C(=O)N[C@@H](C)C(=O)N[C@@H](Cc1ccccc1)C(N)=O)C(C)C)[C@@H](C)O)C(C)C)C(C)C)C(C)C [S19K-C20DA-γGlu] (H-VTHRLAGLLSRK([γGlu-C20 diacid])GGVVKNNFVPTNVGSKAF-NH2) | 13.7 | ~ 6 h | –
CC(C)C[C@H](NC(=O)CNC(=O)[C@H](C)NC(=O)[C@H](CC(C)C)NC(=O)[C@H](CCCNC(=N)N)NC(=O)[C@H](Cc1c[nH]cn1)NC(=O)[C@@H](NC(=O)[C@@H](N)C(C)C)[C@@H](C)O)C(=O)N[C@@H](CC(C)C)C(=O)N[C@@H](CO)C(=O)N[C@@H](CCCNC(=N)N)C(=O)N[C@@H](CO)C(=O)NCC(=O)NCC(=O)N[C@H](C(=O)N[C@H](C(=O)N[C@@H](CCCCN)C(=O)N[C@@H](CCCCNC(=O)CC[C@H](NC(=O)CCCCCCCCCCCCCCCCCCC(=O)O)C(=O)O)C(=O)N[C@@H](CC(N)=O)C(=O)N[C@@H](Cc1ccccc1)C(=O)N[C@H](C(=O)N1CCC[C@H]1C(=O)N[C@H](C(=O)N[C@@H](CC(N)=O)C(=O)N[C@H](C(=O)NCC(=O)N[C@@H](CO)C(=O)N[C@@H](CCCCN)C(=O)N[C@@H](CO)C(=O)N[C@@H](Cc1ccccc1)C(N)=O)C(C)C)[C@@H](C)O)C(C)C)C(C)C)C(C)C [hαCGRP8-37A36S, N25K-C20DA-γGlu] (H-VTHRLAGLLSRSGGVVKK([γGlu-C20 diacid])NFVPTNVGSKSF-NH2) | – | – | 6.76
CC(C)C[C@H](NC(=O)CNC(=O)[C@H](C)NC(=O)[C@H](CC(C)C)NC(=O)[C@H](CCCNC(=N)N)NC(=O)[C@H](Cc1c[nH]cn1)NC(=O)[C@@H](NC(=O)[C@@H](N)C(C)C)[C@@H](C)O)C(=O)N[C@@H](CC(C)C)C(=O)N[C@@H](CO)C(=O)N[C@@H](CCCNC(=N)N)C(=O)N[C@@H](CO)C(=O)NCC(=O)NCC(=O)N[C@H](C(=O)N[C@H](C(=O)N[C@@H](CCCCN)C(=O)N[C@@H](CCCCNC(=O)CC[C@H](NC(=O)CCCCCCCCCCCCCCCCCCC(=O)O)C(=O)O)C(=O)N[C@@H](CC(N)=O)C(=O)N[C@@H](Cc1ccccc1)C(=O)N[C@H](C(=O)N1CCC[C@H]1C(=O)N[C@H](C(=O)N[C@@H](CC(N)=O)C(=O)N[C@H](C(=O)NCC(=O)N[C@@H](CO)C(=O)N[C@@H](CCCCN)C(=O)N[C@@H](C)C(=O)N[C@@H](Cc1ccccc1)C(N)=O)C(C)C)[C@@H](C)O)C(C)C)C(C)C)C(C)C [hαCGRP8-37N25K-C20DA-γGlu] | 7.3 | – | 4.68
VTHRLAGLLSRSGGVVKNNFVPTNVGSKSF-NH2 [hαCGRP8-37A36S] | – | – | 1.66
